# Measured values from patent US20060074066A1, “Use of an inhibitor of cathepsin-S or -B to treat or prevent chronic obstructive pulmonary disease” (Yale University, priority 2003, published 2006).
# “Also recorded” adds a separate entry of the source. Peptide text beside a SMILES is read from it. * marks the point of attachment. Cbz = O=C(OCc1ccccc1)*; CH2F = FC*
# What was measured:
# Type in all cases: in vivo
# CC10-rtTA-IFN-γ mice [1] = assay: IFN-γ-induced BAL cell recovery and tissue inflammation; conditions: transgene (+) mice on dox for 2 weeks
# Description: Mice were euthanized, the trachea was isolated by blunt dissection, and tubing was secured in the airway. Two volumes of 1 mL of PBS with 0.1% BSA were then instilled and gently aspirated and pooled. Each BAL fluid sample was centriged, and the supernatants were stored in −70° C. until used. The levels of IFN-γ were determined using a commercial ELISA (R&D Systems Inc., Minneapolis, Minn., USA) as per the manufacturer's instructions.
# (§1) Animals were sacrificed via cervical dislocation, a median stemotomy was performed, and right heart perfusion was accomplished with calcium- and magnesium-free PBS to clear the pulmonary intravascular space. The lungs were then fixed to pressure (25 cm) with neutral buffered 10% formalin, fixed overnight in 10% formalin, embedded in paraffm, sectioned at 5 μm and stained. Hematoxylin and eosin (H&E) stains were performed in the Research Histology Laboratory of the Department of Pathology at Yale University School of Medicine.
# IFN-γ-induced apoptosis = assay: TUNEL evaluation of IFN-γ-induced lung cell apoptosis in transgenic mice; conditions: transgene (+) mice on dox; for effect on IFN-γ-induced apoptosis (in words): treated vs vehicle control, 14150 10 mg/kg/day by gavage, CA074 10 mg/Kg/day I.P., leupeptin 15 mg/kg I.P.
# Description: (§2) CC10-rtTA-IFN-γ mice that had been generated in our laboratory and bred for at least 10 generations onto a Balb/c background were used in these studies. These are dual transgene positive animals in which the reverse tetracycline transactivator (rtTA) drives the expression of the murine IFN-γ gene in a lung-specific and externally regulatable fashion. The transgene in these mice is activated by adding doxycycline (dox) to the animal's drinking water. These mice were maintained as dual transgene (+) heterozygotes (refered to as transgene (+) hereafter).
# (§3) CC10-rtTA-IFN-γ mice and littermate controls were maintained on normal water until they were 4-6 weeks old.
# End labeling of exposed 3′-OH ends of DNA fragments in paraffin embedded tissue was undertaken with the TUNEL in situ cell death detection kit AP (Roche Diagnostics, CA, USA) using the instructions provided by the manufacturer. After staining, 20 fields of alveoli were randomly chosen and 2000 nuclei were counted. The labeled cells were expressed as percentage of total nuclei.
# CC10-rtTA-IFN-γ mice [2] = assay: IFN-γ-induced emphysema (lung volume, chord length, alveolar histology, compliance) in transgenic mice; conditions: transgene (+) mice on dox, treated vs vehicle control
# Description: as §2, §3, §1
# In brief, the trachea was cannulated, the lungs were degassed and the lungs and heart were removed en bloc and inflated with PBS at 25 cm of pressure. The size of the lung was evaluated via volume displacement. Compliance was calculated as the change in volume divided by the change in pressure.
# [3] = tested on: cathepsins B, S, and H and MMPs-2, 9, 12 and 14; assay: Lung mRNA encoding cathepsins and MMPs (RT-PCR, real-time RT-PCR); conditions: transgene (+) mice on dox for 2 weeks
Structure (SMILES),"IFN-γ-induced BAL total cell, neutrophil, lymphocyte and macrophage alterations and tissue inflammation (CC10-rtTA-IFN-γ mice [1])",decrease of the levels of IFN-γ-induced apoptosis (IFN-γ-induced apoptosis; Z-VAD-fmk 3 μg/kg/day I.P. vs vehicle control) [%],"effect on IFN-γ-induced emphysema (lung volume, chord length, histology, compliance; in words) (CC10-rtTA-IFN-γ mice [2])","IFN-γ-induced increase in mRNA encoding cathepsin B, cathepsin S and MMPs-2 and -14 [3]",levels of mRNA encoding cathepsin H and MMPs-9 and -12 [3],MMP-9 mRNA induction by IFN-γ [3],effect on IFN-γ-induced apoptosis (in words) (IFN-γ-induced apoptosis)
COC(=O)C[C@H](NC(=O)[C@H](C)NC(=O)[C@@H](NC(=O)OCc1ccccc1)C(C)C)C(=O)CF [Z-VAD-fmk] (Cbz-Val-Ala-Asp(OMe)-CH2F),markedly ameliorated,≥ 85,decreased the emphysema generating effects of IFN-γ; also recorded: only partially abrogated,markedly ameliorated,not similarly altered,–,–
CC(=O)N[C@@H](CC(C)C)C(=O)N[C@@H](CC(C)C)C(=O)N[C@H](C=O)CCCNC(=N)N [leupeptin],–,–,–,decreased,–,leupeptin-dependent,–
CC[C@H](NC(=O)[C@H](CS(=O)(=O)CC(C)C)NC(=O)N1CCOCC1)C(=O)c1nc2ccccc2o1 [compound 14150],–,–,significant decreases; also recorded: significantly inhibited,–,–,–,significant decreases; also recorded: significantly inhibited
"CCCNC(=O)[C@H]1O[C@@H]1C(=O)N[C@H](C(=O)N1CCC[C@H]1C(=O)O)[C@@H](C)CC (relative stereo) [CA074, N-(L-3-trans-propylcarbamoyl-oxirane-2-carbonyl)-L-isoleucyl-L-proline]",–,–,significant decreases,–,–,–,significant decreases
